# Data from ChEMBL document CHEMBL5608211, “Antibody-drug conjugates for targeted cancer therapy: Recent advances in potential payloads” (Eur J Med Chem, 2024).
# Legend:
# CCRF-CEM = test: Cytotoxicity against human CCRF-CEM cells; type: functional, cell-based
# [1] = Apparent permeability across basolateral to apical side in human Caco-2 cells incubated for 2 hrs by HPLC-MS analysis; type: ADME, cell-based
# SK-OV-3 = test: Cytotoxicity against human SK-OV-3 cells incubated for 96 hrs by PrestoBlue reagent based cell viability assay; type: functional; conditions: SK-OV-3, 96 h
# BT-474 = test: Antiproliferative activity against human BT-474 cells assessed as inhibition of cell growth incubated for 4 days by WST-8 assay; type: functional, cell-based; conditions: BT-474, 96 h
# A2780 [2] = test: Cytotoxicity against human A2780 cells assessed as inhibition of cell growth incubated for 72 hrs by MTT assay; type: functional, cell-based; conditions: A2780, 72 h
# Tubulin = test: Displacement of fluorescent Maytansine probe from tubulin (unknown origin) assessed as dissociation constant by competitive binding based fluorescence anisotropy; type: protein-complex assay, Homo sapiens
# KB 3-1 = test: Cytotoxicity against human KB 3-1 cells assessed as inhibition of cell growth incubated for 3 days by SRB assay; type: functional, cell-based; conditions: KB 3-1, 72 h
# HepG2 = test: Cytotoxicity against human HepG2 cells assessed as inhibition of cell growth incubated for 72 hrs by fluorometric assay; type: functional, cell-based; conditions: HepG2, 72 h
# [3] = Cytotoxicity against human L540cy cells assessed as reduction in cell growth incubated for 4 days by CellTiter-Glo luminescent assay; type: functional, cell-based; conditions: 96 h
# A2780 [4] = test: Cytotoxicity against human A2780 cells; type: functional, cell-based
# HT-29 [5] = test: Antiproliferative activity against human HT-29 cells assessed as inhibition of cell growth incubated for 72 hrs by coulter counter method; type: functional, cell-based; conditions: HT-29, 72 h
# HT-29 [6] = test: Antiproliferative activity against human HT-29 cells assessed as inhibition of cell growth incubated for 48 to 96 hrs by MTT assay; type: functional, cell-based
# K562 = test: Antiproliferative activity against human K562 cells assessed as inhibition of cell growth incubated for 5 days by WST-1 assay; type: functional, cell-based; conditions: K562, 120 h
# [7] = Inhibition of RNA polymerase II phosphorylation in human HeLa cells by Western blot analysis; type: cell-based
# SK-BR-3 = test: Cytotoxicity against human SK-BR-3 cells incubated for 4 to 7 days hrs by CellTiter-Glo luminescent assay; type: functional, cell-based
smiles,measurement,setting,value
COc1ccc(C[C@H]2NC(=O)/C=C/C[C@@H]([C@H](C)[C@@H](O)[C@@H](Cl)c3ccccc3)OC(=O)[C@H](CC(C)C)OC(=O)C(C)(C)CNC2=O)cc1Cl,IC50,CCRF-CEM,0.027 nM
CC[C@H](C)[C@@H]([C@@H](CC(=O)N1CCC[C@H]1[C@H](OC)[C@@H](C)C(=O)N[C@@H](Cc1ccccc1)c1nnc(-c2ccccc2)o1)OC)N(C)C(=O)[C@@H](NC(=O)[C@H](C(C)C)N(C)CCCC(=O)O)C(C)C,Papp B→A at 2 h,[1],2.9 ×10⁻⁶ cm/s
CC[C@H](C)[C@@H]([C@@H](CC(=O)N1CCC[C@H]1[C@H](OC)[C@@H](C)C(=O)N[C@@H](Cc1ccccc1)c1nccs1)OC)N(C)C(=O)[C@@H](NC(=O)[C@H](C(C)C)N(C)CC(O)C(O)C(O)C(O)CN=[N+]=[N-])C(C)C (some centres undefined),IC50,SK-OV-3,< 1 nM
CC[C@H](C)[C@@H]([C@@H](CC(=O)N1C[C@@H](NC)C[C@H]1[C@H](OC)[C@@H](C)C(=O)NCCc1c(F)cccc1F)OC)N(C)C(=O)[C@@H](NC(=O)[C@H](C(C)C)N(C)C)C(C)C,IC50,BT-474,< 0.4 nM
CC[C@H](C)[C@@H]([C@@H](CC(=O)N1C[C@@H](N)C[C@H]1[C@H](OC)[C@@H](C)C(=O)NCCc1c(F)cccc1F)OC)N(C)C(=O)[C@@H](NC(=O)[C@H](C(C)C)N(C)C)C(C)C,IC50,BT-474,< 0.4 nM
COc1cc2cc(c1Cl)N(C)C(=O)C[C@H](OC(C)=O)[C@@]1(C)O[C@H]1[C@H](C)[C@@H]1C[C@@](O)(NC(=O)O1)[C@H](OC)/C=C/C=C(\C)C2,IC50,A2780 [2],0.25 nM
same,Kd,Tubulin,11 nM
CN[C@H](C(=O)N[C@H](C(=O)N(C)[C@H](/C=C(\C)C(=O)N1CCC[C@H]1[C@H](OC)[C@@H](C)C(=O)N[C@@H](Cc1ccccc1)c1nccs1)C(C)C)C(C)(C)C)C(C)(C)c1ccccc1,IC50,KB 3-1,0.75 nM
CC[C@H](C)[C@@H]([C@@H](CC(=O)N1C[C@@H](NC(=O)OC(C)(C)C)C[C@H]1[C@H](OC)[C@@H](C)C(=O)NCCc1c(F)cccc1F)OC)N(C)C(=O)[C@@H](NC(=O)[C@H](C(C)C)N(C)C)C(C)C,IC50,HepG2,0.13 nM
Nc1cccc(C(=O)N2CCC(CCCCNC(=O)/C=C/c3cccnc3)CC2)c1,EC50,[3],6.3 nM
CC(=O)N[C@@H](C)c1ccc(NC(=O)[C@H]2C[C@@H]2c2cccnc2)cc1,IC50,A2780 [4],5 nM
CC[C@H](C)[C@H](NC(=O)[C@H]1CCCCN1C)C(=O)N(CC1CC1)[C@H](C[C@@H](OC(C)=O)c1nc(C(=O)N[C@@H](Cc2ccccc2)C[C@H](C)C(=O)O)cs1)C(C)C,IC50,HT-29 [5],0.055 nM
CC[C@H](C)[C@@H]([C@@H](CC(=O)N1CCC[C@H]1[C@H](OC)[C@@H](C)C(=O)N[C@H](Cc1ccccc1)c1nnc(-c2ccccc2)o1)OC)N(C)C(=O)[C@@H](NC(=O)[C@H](C(C)C)N(C)CCCC(=O)O)C(C)C,IC50,HT-29 [6],0.1 nM
same,Papp B→A at 2 h,[1],4.5 ×10⁻⁶ cm/s
CC[C@H](C)[C@H](NC(=O)[C@H]1CCCCN1C)C(=O)N(COC(=O)CC(C)C)[C@H](C[C@@H](OC(C)=O)c1nc(C(=O)N[C@H](Cc2ccccc2)C[C@H](C)C(=O)O)cs1)C(C)C,IC50,K562,0.02 ng/mL
C#CCCCCC(=O)O[C@H]1CC(=O)N(C)c2cc(cc(OC)c2Cl)C/C(C)=C/C=C/[C@@H](OC)[C@@]2(O)C[C@H](OC(=O)N2)[C@@H](C)[C@@H]2O[C@]12C,IC50,A2780 [2],0.033 nM
same,Kd,Tubulin,20 nM
CC[C@H](C)[C@@H]1NC(=O)CNC(=O)[C@H]2CC(=O)[C@H]([C@@H](C)[C@@H](O)CO)NC(=O)[C@@H]3C[C@@H](C#N)CN3C(=O)[C@H](CC(N)=O)NC(=O)[C@H](CSc3[nH]c4cc(O)ccc4c3C2)NC(=O)CNC1=O,IC50,[7],480 nM
CCCO[C@H](C[C@H](C(C)C)N(C)C(=O)[C@@H](NC(=O)[C@H]1CCCCN1C)C(C)C)c1nc(C(=O)N[C@@H](Cc2ccc(N)cc2)C[C@H](C)C(=O)O)c(CCOCc2ccccc2)s1,IC50,SK-BR-3,0.04 nM
